In PubChem BioAssay (NCI):
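1) Cells in 96-well plates. 2) Compound, 48 h, 5 concentrations. 3) Linear interpolation between surrounding doses. 4) Unreached endpoint = highest concentration. At the TGI there is no net growth.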

What was measured:
Experiment in all cases: NCI tumour cell line growth inhibition, 48 h
HOP-18 NSCLC = system: HOP-18 NSCLC
LXFL 529 NSCLC = system: LXFL 529 NSCLC
SNB-78 CNS = system: SNB-78 CNS
DLD-1 colon = system: DLD-1 colon
M19-MEL melanoma = system: M19-MEL melanoma
XF 498 CNS = system: XF 498 CNS
DMS 273 small cell lung = system: DMS 273 small cell lung
RXF-631 renal = system: RXF-631 renal
DMS 114 small cell lung = system: DMS 114 small cell lung
SN12K1 renal = system: SN12K1 renal
P388/ADR leukemia = system: P388/ADR leukemia
P388 leukemia = system: P388 leukemia

SMILES	TGI (HOP-18 NSCLC) [µM]	TGI (LXFL 529 NSCLC) [µM]	TGI (SNB-78 CNS) [µM]	TGI (DLD-1 colon) [µM]	TGI (M19-MEL melanoma) [µM]	TGI (XF 498 CNS) [µM]	TGI (DMS 273 small cell lung) [µM]	TGI (RXF-631 renal) [µM]	TGI (DMS 114 small cell lung) [µM]	TGI (SN12K1 renal) [µM]	TGI (P388/ADR leukemia) [µM]	TGI (P388 leukemia) [µM]
CC(CN(C)C)C(=O)c1ccccc1 (stereo unspecified)	> 100	39.8	> 64	32.6	35.4	45	> 100	> 100	> 57.8			
COc1ccc(C2C3CCCC(C3=O)C(c3ccc(OC)cc3)N2N=O)cc1 (stereo unspecified)	31		> 100	> 100	99.2	72.4	43.6		47.9	> 79.6	38.3	42.9
COc1ccc2c(c1)c(=O)c1c(NCCN(C)C)ccc3nnn2c31	7.35	18	21.8	20	20.8			14	19.4			
